For assay [1], the target named is T1, kappa opioid receptor (Cavia porcellus, UniProt P41144).
T1 construct: as measured in guinea pig caudate membranes; from tissue; host or cells: guinea pig caudate membranes
Put plainly: Inhibition of U69,593-stimulated [35S]GTPγS binding in guinea pig caudate. It counts as biochemical. Conditions: for Ki: 50% attenuation of U69,593 (10 μM)-stimulated [35S]GTP-γ-S binding, ± SD, read-out: Apparent Functional Ki U69,593; for δ/κ / μ/κ: ratio of apparent functional Ki.

Assay [2] concerns the target T2, kappa opioid receptor (Homo sapiens, UniProt P41145). In words: Inhibition of U69,593-stimulated [35S]GTPγS binding in cloned human opioid receptors. It counts as biochemical. More on the design: expressed in transfected cells. (Binding of GTPγS marks nucleotide exchange on a G protein.)
For assay [3], the target named is T3, mu opioid receptor (Homo sapiens, UniProt P35372). Put plainly: Inhibition of DAMGO-stimulated [35S]GTPγS binding in cloned human opioid receptors. It counts as biochemical. Further details: expressed in transfected cells. Conditions: 50% attenuation of DAMGO (10 μM)-stimulated [35S]GTP-γ-S binding, ± SD, read-out: Apparent Functional Ki DAMGO.
The target of assay [4] is T3, mu opioid receptor. Put plainly: Radioligand competitive binding, [3H]DAMGO. Conditions: for Ki: radioligand binding, mu, ± SD.
The target of assay [5] is T4, delta opioid receptor (Homo sapiens, UniProt P41143). In words: Inhibition of SNC-80-stimulated [35S]GTPγS binding in cloned human opioid receptors. Further details: expressed in transfected cells. Conditions: 50% attenuation of SNC80 (10 μM)-stimulated [35S]GTP-γ-S binding, ± SD, read-out: Apparent Functional Ki SNC-80. It counts as biochemical.
Assay [6] deals with mu opioid receptor (Cavia porcellus, UniProt A0ACM8Q262). In words: Inhibition of DAMGO-stimulated [35S]GTPγS binding in guinea pig caudate. The assay is classed as biochemical. Conditions: 50% attenuation of DAMGO (10 μM)-stimulated [35S]GTP-γ-S binding, ± SD, read-out: Apparent Functional Ki DAMGO.
In assay [7] the target is T2, kappa opioid receptor. Put plainly: Radioligand competitive binding, [3H]U69,593. The following applies: for Ki: radioligand binding, kappa, ± SD; for delta/kappa selectivity ratio (binding) / mu/kappa selectivity ratio (binding): column head not printed in Table 1.
The target in assay [8] is T4, delta opioid receptor. In words: Radioligand competitive binding, [3H]DADLE. Conditions: for Ki: delta, ± SD.
The target in assay [9] is T5, delta opioid receptor (Cavia porcellus, UniProt A0A286XTF2).
T5 construct: as measured in guinea pig caudate membranes; from tissue; host or cells: guinea pig caudate membranes
Put plainly: Inhibition of SNC-80-stimulated [35S]GTPγS binding in guinea pig caudate. It counts as biochemical. Conditions: 50% attenuation of SNC80 (10 μM)-stimulated [35S]GTP-γ-S binding, ± SD, read-out: Apparent Functional Ki SNC-80.

[10] abbreviates: ratio of apparent functional Ki, cloned human receptors.

Consider `C[C@@H]1CN(CCCc2ccccc2)[C@H]2C[C@H](NC(=O)CCN3CCCCC3)C[C@]1(c1cccc(O)c1)C2` [Compound 12, (−)-N-[(1R,4S,5S, 7R)-5-(3-hydroxy)phenyl-4-methyl-2-(3-phenylpropyl)-2-azabicyclo[3.3.1]non-7-yl]-3-(1-piperidinyl)propanamide], for which the Ki was 0.48 ± 0.06 nM on kappa opioid receptor [1]; 0.56 ± 0.08 nM on kappa opioid receptor [2] (cloned human opioid receptors, 50% attenuation of U69,593 (10 μM)-stimulated [35S]GTP-γ-S binding, ± SD, read-out: Apparent Functional Ki U69,593); 35.8 ± 6.8 nM at mu opioid receptor [3]; 147 nM on mu opioid receptor [4]; over 100 nM on delta opioid receptor [5]; 33.6 ± 10.4 nM at mu opioid receptor [6]. Moreover, the Ki was 4.3 nM at kappa opioid receptor [7], over 3400 nM at delta opioid receptor [8] and over 300 nM on delta opioid receptor [9]. Also, the δ/κ on kappa opioid receptor [1] is listed as over 625; on kappa opioid receptor [2] (setting [10]) it was over 178. The results for the μ/κ at kappa opioid receptor [1] and at kappa opioid receptor [2] (setting [10]) were 70 and 64, respectively. Also, the “affinity for the mu receptor lower than compound 10” value on mu opioid receptor [4] (binding Ki of 12 relative to 10) was about 50 fold. The “delta/kappa selectivity profile (binding, text)” value on kappa opioid receptor [7] (ratio of binding Ki) is over 790 fold. Further, the “delta/kappa selectivity ratio (binding)” value at kappa opioid receptor [7] (ratio of binding Ki) was over 790. The “mu/kappa selectivity ratio (binding)” value at kappa opioid receptor [7] (ratio of binding Ki) stood at 34. On delta opioid receptor [8] (within the testing parameters), the “affinity for the delta receptor (in words)” value is on record as “no affinity”.
Take `C[C@@H]1CN(CCCc2ccccc2)[C@H]2C[C@H](NC(=O)CCCN(C)C)C[C@]1(c1cccc(O)c1)C2` [Compound 13, 4-(dimethylamino)-N-[(1R,4S,5S,7R)-5-(3-hydroxyphenyl)-4-methyl-2-(3-phenylpropyl)-2-azabicyclo[3.3.1]non-7-yl]butanamide]: the figures for the Ki at mu opioid receptor [4], at kappa opioid receptor [7] and on delta opioid receptor [8] were 57 ± 5.4 nM, 11.9 ± 0.65 nM and 1460 ± 113 nM, respectively. Also, the “delta/kappa selectivity ratio (binding)” value at kappa opioid receptor [7] (ratio of binding Ki) worked out at 122. For the same compound, the “mu/kappa selectivity ratio (binding)” value at kappa opioid receptor [7] (ratio of binding Ki) worked out at 5.
Take `Oc1ccc2c3c1O[C@H]1c4[nH]c5c(c4C[C@@]4(O)[C@@H](C2)N(CC2CC2)CC[C@]314)C[C@@]1(O)[C@H]2Cc3ccc(O)c4c3[C@@]1(CCN2CC1CC1)[C@H]5O4` [6, nor-BNI, norbinaltorphimine]: the Ki at delta opioid receptor [9] came to 86 ± 7.2 nM.
For the compound `CC1C2CCCC1(c1cccc(O)c1)CCN2CCc1ccccc1` (stereo not drawn) [Compound 10, N-phenethyl-9β-methyl-5-(3-hydroxyphenyl)morphan, reference compound], the Ki is 1.34 ± 0.084 nM on kappa opioid receptor [1]; 3.11 nM on mu opioid receptor [4]; 0.338 ± 0.028 nM on mu opioid receptor [6]; 14.5 ± 0.99 nM at kappa opioid receptor [7]; 272 ± 30 nM at delta opioid receptor [8]; 12.6 ± 1.01 nM at delta opioid receptor [9]. The δ/κ at kappa opioid receptor [1] was 9.4. The μ/κ on kappa opioid receptor [1] came to 0.25. Moreover, the “delta/kappa selectivity ratio (binding)” value on kappa opioid receptor [7] (ratio of binding Ki) is 19. Further, at kappa opioid receptor [7] (ratio of binding Ki), the “mu/kappa selectivity ratio (binding)” value came out at 0.21.

These data come from patent publication US6559159B2, “Kappa opioid receptor ligands” (Research Triangle Institute, priority 2001, dated 2003).
